Results reported in publication PMC9609767, “Radiosynthesis and Preclinical Evaluation of an ^18F-Labeled Triazolopyridopyrazine-Based Inhibitor for Neuroimaging of the Phosphodiesterase 2A (PDE2A)” (Pharmaceuticals, 2022).

How the values were obtained:
[1] = Dynamic PET/MR study in CD-1 mouse; assay type: in vivo; conditions: for Uptake (SUVmean): uncorrected for metabolites
Procedure: For the time of the experiments, one female CD-1 mouse (10 weeks; 30.5 g) and one female SPRD rat (9 weeks; 256 g) were kept in a dedicated climatic chamber with free access to water and food under a 12:12 h dark:light cycle at a constant temperature (24 °C). The animals were anesthetized (Anaesthesia Unit U-410, agntho’s, Lidingö, Sweden) with isoflurane (2.0%, 300 mL/min) delivered in a 60% oxygen/40% air mixture (Gas Blender 100 Series, MCQ instruments, Rome, Italy) and their body temperature maintained at 37 °C with a thermal bed system for the duration of the PET studies. A dynamic PET scan (PET/MR 1T, Mediso nanoScan®, Hungary) started 20 s before intravenous injection into the tail vein of [^18F]11 and was performed in mouse for 60 min (4.9 MBq in 150 μL isotonic saline; 20.5 nmol/kg; Am: 8.9 GBq/μmol, EOS) in rat for 30 min (29.7 MBq in 400 μL isotonic saline; 12 nmol/kg; Am: 11 GBq/μmol, EOS). Each PET image was corrected for random coincidences, dead time, scatter and attenuation (AC), based on a whole body (WB) MR scan. The reconstruction parameters for the list mode data were 3D-ordered subset expectation maximization (OSEM), 4 iterations, 6 subsets, energy window: 400–600 keV, coincidence mode: 1–5, ring difference: 81. Preceding the PET scan a T1 weighted WB gradient echo sequence (TR/TE: 20/6.4 ms, NEX: 1, FA: 25, FOV: 64 × 64 mm, Matrix: 128 × 128, STh: 0.5 mm) was performed for AC and anatomical orientation. PET Images were analyzed with PMOD (PMOD Technologies LLC, v. 4.1, Zurich, Switzerland). The respective brain regions were identified using the mouse brain atlas template Ma-Benveniste-Mirrione-T2 or the rat brain atlas template Schwarz-T2. The regional activity data (radioactivity concentration, kBq/mL) were normalized to the injected dose (MBq) and corrected for the animal weight (g) to provide standardized uptake values (SUV, g/mL). Finally, the results of the PETscans are expressed as mean SUV of the respective region of interest ROI.

[2] = logD by shake flask method (n-octanol/PBS); assay type: physicochemical; conditions: n-octanol/phosphate-buffered saline, n = 4
Procedure: In order to estimate the lipophilicity of [^18F]11, the partition coefficient was determined by the shake flask method using n-octanol and phosphate-buffered saline as partition system. […] The chemical stability of the radiotracer was investigated by incubation in phosphate-buffered saline (PBS) and n-octanol at 30 °C.
The determination of stability and logD value has been performed according to the procedures described by Sadeghzadeh and Wenzel et al..

[3] = In vivo metabolism in SPRD rats (radio-HPLC of plasma and brain); conditions: rat, 30 min p.i., i.v.
Procedure: Metabolism in rats has been investigated in the animals applied in PET studies (protocol reported below). In brief, blood was taken from two anesthetized female SPRD rats 30 min after intravenous injection of [^18F]11 followed by decapitation and isolation of the brains. The blood samples and the brains were processed as described above.
Protein precipitation was performed by the addition of ice-cold ACN/H2O (9:1, v/v) in a ratio of 4:1 (v/v) of organic solvent to plasma or brain homogenate, respectively. The samples were vortexed for 3 min, equilibrated on ice for 3 min, and centrifuged for 10 min at 10,000 rpm and the supernatant collected. The precipitates were washed with 100 μL of the solvent mixture and subjected to the same procedure. The combined supernatants were concentrated at 70 °C under argon flow to a final volume of approximately 100 μL and analysed by analytical radio-HPLC with a gradient system (see radiochemistry general section). The peak corresponding to the radiotracer in the radio-chromatogram was identified by co-injecting the sample with the reference compound 11. To determine the percentage of activity in the supernatants compared to total activity, aliquots of each step as well as the precipitates were quantified by an automated gamma counter (1480 WIZARD, Perkin Elmer, Turku, Finland). […]

## CCCC(O)c1ccc([18F])c(-c2nnc3c(C)nc4ccc(C5CC5)nc4n23)c1 (stereo not drawn) [[^18F]11]
[1]; 60 min p.i.
  maximum SUV in small intestine: ~ 35 SUV
[1]; all time points investigated
  SUV in bladder, spleen, muscle, gallbladder, kidney, and liver: < 5 SUV
[1]; bladder, 5 min
  Uptake (SUVmean): 0.10 SUV
[1]; bladder, 15 min
  Uptake (SUVmean): 0.08 SUV
[1]; bladder, 30 min
  Uptake (SUVmean): 0.10 SUV
[1]; bladder, 45 min
  Uptake (SUVmean): 0.07 SUV
[1]; bladder, 60 min
  Uptake (SUVmean): 0.06 SUV
[1]; blood, 5 min
  Uptake (SUVmean): 0.93 SUV
[1]; blood, 15 min
  Uptake (SUVmean): 0.56 SUV
[1]; blood, 30 min
  Uptake (SUVmean): 0.46 SUV
[1]; blood, 45 min
  Uptake (SUVmean): 0.34 SUV
[1]; blood, 60 min
  Uptake (SUVmean): 0.32 SUV
[1]; bones, 5 min
  Uptake (SUVmean): 0.71 SUV
[1]; bones, 15 min
  Uptake (SUVmean): 0.47 SUV
[1]; bones, 30 min
  Uptake (SUVmean): 0.31 SUV
[1]; bones, 45 min
  Uptake (SUVmean): 0.23 SUV
[1]; bones, 60 min
  Uptake (SUVmean): 0.20 SUV
[1]; caecum, 5 min
  Uptake (SUVmean): 0.10 SUV
[1]; caecum, 15 min
  Uptake (SUVmean): 0.12 SUV
[1]; caecum, 30 min
  Uptake (SUVmean): 0.11 SUV
[1]; caecum, 45 min
  Uptake (SUVmean): 0.11 SUV
[1]; caecum, 60 min
  Uptake (SUVmean): 0.16 SUV
[1]; cerebellum, at 0.8 min
  TAC peak value (SUV): 0.61 SUV
[1]; cortex, at 2.8 min
  TAC peak value (SUV): 0.47 SUV
[1]; gallbladder, 5 min
  Uptake (SUVmean): 1.41 SUV
[1]; gallbladder, 15 min
  Uptake (SUVmean): 1.78 SUV
[1]; gallbladder, 30 min
  Uptake (SUVmean): 1.46 SUV
[1]; gallbladder, 45 min
  Uptake (SUVmean): 1.32 SUV
[1]; gallbladder, 60 min
  Uptake (SUVmean): 1.34 SUV
[1]; heart, 5 min
  Uptake (SUVmean): 1.11 SUV
[1]; heart, 15 min
  Uptake (SUVmean): 0.65 SUV
[1]; heart, 30 min
  Uptake (SUVmean): 0.52 SUV
[1]; heart, 45 min
  Uptake (SUVmean): 0.37 SUV
[1]; heart, 60 min
  Uptake (SUVmean): 0.35 SUV
[1]; hippocampus, at 2.8 min
  TAC peak value (SUV): 0.70 SUV
[1]; kidney left, 5 min
  Uptake (SUVmean): 2.79 SUV
[1]; kidney left, 15 min
  Uptake (SUVmean): 2.37 SUV
[1]; kidney left, 30 min
  Uptake (SUVmean): 1.61 SUV
[1]; kidney left, 45 min
  Uptake (SUVmean): 1.18 SUV
[1]; kidney left, 60 min
  Uptake (SUVmean): 1.17 SUV
[1]; liver, 5 min
  Uptake (SUVmean): 3.40 SUV
[1]; liver, 15 min
  Uptake (SUVmean): 4.16 SUV
[1]; liver, 30 min
  Uptake (SUVmean): 3.62 SUV
[1]; liver, 45 min
  Uptake (SUVmean): 3.17 SUV
[1]; liver, 60 min
  Uptake (SUVmean): 3.00 SUV
[1]; lung, 5 min
  Uptake (SUVmean): 0.65 SUV
[1]; lung, 15 min
  Uptake (SUVmean): 0.43 SUV
[1]; lung, 30 min
  Uptake (SUVmean): 0.33 SUV
[1]; lung, 45 min
  Uptake (SUVmean): 0.25 SUV
[1]; lung, 60 min
  Uptake (SUVmean): 0.25 SUV
[1]; muscle, 5 min
  Uptake (SUVmean): 0.63 SUV
[1]; muscle, 15 min
  Uptake (SUVmean): 0.49 SUV
[1]; muscle, 30 min
  Uptake (SUVmean): 0.35 SUV
[1]; muscle, 45 min
  Uptake (SUVmean): 0.26 SUV
[1]; muscle, 60 min
  Uptake (SUVmean): 0.21 SUV
[1]; small intestine, 5 min
  Uptake (SUVmean): 2.10 SUV
[1]; small intestine, 15 min
  Uptake (SUVmean): 9.48 SUV
[1]; small intestine, 30 min
  Uptake (SUVmean): 20.64 SUV
[1]; small intestine, 45 min
  Uptake (SUVmean): 29.65 SUV
[1]; small intestine, 60 min
  Uptake (SUVmean): 35.11 SUV
[1]; spleen, 5 min
  Uptake (SUVmean): 0.48 SUV
[1]; spleen, 15 min
  Uptake (SUVmean): 0.59 SUV
[1]; spleen, 30 min
  Uptake (SUVmean): 0.45 SUV
[1]; spleen, 45 min
  Uptake (SUVmean): 0.30 SUV
[1]; spleen, 60 min
  Uptake (SUVmean): 0.24 SUV
[1]; stomach, 5 min
  Uptake (SUVmean): 0.15 SUV
[1]; stomach, 15 min
  Uptake (SUVmean): 0.18 SUV
[1]; stomach, 30 min
  Uptake (SUVmean): 0.19 SUV
[1]; stomach, 45 min
  Uptake (SUVmean): 0.17 SUV
[1]; stomach, 60 min
  Uptake (SUVmean): 0.13 SUV
[1]; striatum, at 2.8 min
  TAC peak value (SUV): 0.71 SUV
[1]; whole brain, at 2.8 min p.i.
  peak value of brain time-activity curve (SUV): 0.55 SUV
[2]
  logD: 1.79 ± 0.66
[3]
  fraction of non-metabolized radiotracer in brain: 66%
  fraction of non-metabolized radiotracer in plasma: about 50%
